Data on 38 compounds can be found in patent US9422240B2, “Partially saturated nitrogen-containing heterocyclic compound” (TAISHO PHARMACEUTICAL CO., LTD, priority 2012, dated 2016).

Structures can show the parent of a compound that is named as a salt.

For test [1], the target named is T1, human PHD2 (Homo sapiens (Human), UniProt Q9GZT9). Description: Test 2: human PHD2 inhibitory activity, fluorescence polarization assay of HIF-1α peptide proline hydroxylation. Type of test: biochemical. As to conditions: for inhibition at 1 µM: read-out: Percent inhibition (% at 1 μM). In short, it runs like this:
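A 19-mer HIF-1α peptide served as substrate, with the reaction started by 40 ng/well human PHD2 (cell lysate of NM_022051-transfected cells) and run 20 min at 30° C. before EDTA stop. Hydroxylated product bound anti-HIF-OH antibody, read by fluorescence polarization versus no-compound control.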
(In general: Polarisation of emitted light reports the rotation of a fluorescent probe.)

Test [2] has as its target T1, human PHD2. Put plainly: Test 1: human PHD2 inhibitory activity, [14C]-2-oxoglutarate to [14C]-succinic acid radiometric assay with HIF-1α peptide. As to conditions: read-out: Percent inhibition (% at 1 μM). Type of test: biochemical. The procedure, abridged: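 Activity was measured by radiometric counting of [14C]-succinic acid formed during prolyl hydroxylation of a 19-mer HIF-1α peptide, after DNPH removal of residual [14C]-2-oxoglutarate. Baculovirus-expressed human PHD2 lysate (4 μg/well) reacted for 15 min at 37° C. Substrate-free and compound-free wells served as reference points for inhibition.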

The mark [3] stands for this setting: test compound's concentration 1 μM, Test 2, fluorescence polarization assay.
Where [4] appears, read: test compound's concentration 1 μM, Test 1, [14C]-2-oxoglutarate radiometric assay.

T1 sequence (Q9GZT9 whole entry): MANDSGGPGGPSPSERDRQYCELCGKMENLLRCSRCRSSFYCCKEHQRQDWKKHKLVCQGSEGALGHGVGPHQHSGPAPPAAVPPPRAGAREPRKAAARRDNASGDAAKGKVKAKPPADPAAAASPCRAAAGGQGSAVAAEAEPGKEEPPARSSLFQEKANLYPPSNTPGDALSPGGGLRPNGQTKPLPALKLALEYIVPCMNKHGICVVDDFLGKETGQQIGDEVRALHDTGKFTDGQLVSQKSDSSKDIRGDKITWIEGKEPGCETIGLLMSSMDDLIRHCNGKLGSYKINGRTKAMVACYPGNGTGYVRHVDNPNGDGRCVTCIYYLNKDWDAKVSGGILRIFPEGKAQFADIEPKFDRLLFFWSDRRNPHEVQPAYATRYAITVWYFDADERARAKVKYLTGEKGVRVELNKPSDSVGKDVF

A word on the inhibition: it is the relative decrease from the control value, in per cent. Turning to `Cn1nc(CN2C(=O)C(C(=O)NCC(=O)O)=C(O)CC2(C)C)cc1-c1ccccc1` [Ex. 1-300], the inhibition at 1 µM on human PHD2 [1] (setting [3]) worked out at 43%; on human PHD2 [2] (setting [4]), 30%.
Taken in the same sequence, the figures for `O=C(O)CNC(=O)C1=C(O)CCN(Cc2ccc(C3CCC3)c(C(F)(F)F)c2)C1=O` [Ex. 1-243] were 92% and 76%.
With `CC(C)C1CN(Cc2ccc(C(F)(F)F)cc2)C(=O)C(C(=O)NCC(=O)O)=C1O` (centres unmarked) [Ex. 1-197], the figures for the inhibition at 1 µM at human PHD2 [1] (setting [3]) and on human PHD2 [2] (setting [4]) were 78% and 66%, respectively.
For `Cc1ccc(Oc2ccc(CN3C(=O)C(C(=O)NCC(=O)O)=C(O)CC34CC4)cn2)cc1` [Ex. 1-303], the inhibition at 1 µM at human PHD2 [1] (setting [3]) worked out at 100%; on human PHD2 [2] (setting [4]), 102%.
Turning to `O=C(O)CNC(=O)C1=C(O)CCN(Cc2ccc(Br)cc2F)C1=O` [Ex. 1-145], the figures for the inhibition at 1 µM on human PHD2 [1] (setting [3]) and at human PHD2 [2] (setting [4]) were 83% and 88%, respectively.
For `Cn1cc(-c2ccc(CN3CCC(O)=C(C(=O)NCC(=O)O)C3=O)cc2)cn1` [Ex. 2-6], the inhibition at 1 µM on human PHD2 [1] (setting [3]) was 80%; at human PHD2 [2] (setting [4]), 68%.
As to `O=C(O)CNC(=O)C1=C(O)CCN(Cc2ccc(Br)cc2)C1=O` [Ex. 1-23], the results for the inhibition at 1 µM at human PHD2 [1] (setting [3]) and on human PHD2 [2] (setting [4]) were 82% and 84%, respectively.
In the same order, the values of `CC1CN(Cc2ccc(Cl)cc2)C(=O)C(C(=O)NCC(=O)O)=C1O` (centres unmarked) [Ex. 1-162] are 77% and 78%.
`C=CCOc1ccc(CN2CCC(O)=C(C(=O)NCC(=O)O)C2=O)cc1` [Ex. 4-2, N-({4-Hydroxy-2-oxo-1-[4-(prop-2-en-1-yloxy)benzyl]-1,2,5,6-tetrahydropyridin-3-yl}carbonyl)glycine]: the inhibition at 1 µM on human PHD2 [1] (setting [3]) came to 81%; on human PHD2 [2] (setting [4]), 77%.
Take `COc1ccc(CN2C(=O)C(C(=O)NCC(=O)O)=C(O)CC2(C)C)cc1C` [Ex. 1-196]: the values for the inhibition at 1 µM at human PHD2 [1] (setting [3]) and on human PHD2 [2] (setting [4]) were 48% and 41%, respectively.
For `O=C(O)CNC(=O)C1=C(O)C2(CC2)CN(Cc2ccc(Cl)cc2)C1=O` [Ex. 1-215], the inhibition at 1 µM at human PHD2 [1] (setting [3]) turned out to be 86%; at human PHD2 [2] (setting [4]), 85%.
In the same order, the values of `O=C(O)CNC(=O)C1=C(O)CCN(C2CCCCC2)C1=O` [Ex. 1-307] are 60% and 51%.
As for `O=C(O)CNC(=O)C1=C(O)CC2(CCC2)N(CC2CCC(c3ccccc3)CC2)C1=O` (centres unmarked) [Ex. 1-137], the inhibition at 1 µM on human PHD2 [1] (setting [3]) is 92%; at human PHD2 [2] (setting [4]) it was 78%.
As for `O=C(O)CNC(=O)C1=C(O)CCN(CCc2cccc(C(F)(F)F)c2)C1=O` [Ex. 1-173], the inhibition at 1 µM at human PHD2 [1] (setting [3]) came to 78%; at human PHD2 [2] (setting [4]) it was 64%.
In the case of `O=C(O)CNC(=O)C1=C(O)CC2(CCC2)N(Cc2ccc(Cl)cc2)C1=O` [Ex. 1-166], the inhibition at 1 µM at human PHD2 [1] (setting [3]) came to 86%; at human PHD2 [2] (setting [4]), 82%.
Taken in the same sequence, the figures for `CC1(C)CC(O)=C(C(=O)NCC(=O)O)C(=O)N1Cc1ccc(OC(CF)CF)c(Cl)c1` [Ex. 1-188] were 63% and 44%.
Taken in the same sequence, the figures for `COc1ccc(CN2CCC(O)=C(C(=O)NCC(=O)O)C2=O)c(C)c1` [Ex. 1-62] were 68% and 65%.
Taken in the same sequence, the figures for `CC1CN(Cc2ccc(C(F)(F)F)cc2)C(=O)C(C(=O)NCC(=O)O)=C1O` (centres unmarked) [Ex. 1-103] were 82% and 76%.
`O=C(O)CNC(=O)C1=C(O)C2(CCCCC2)CN(Cc2ccccc2)C1=O` [Ex. 1-6]: the inhibition at 1 µM on human PHD2 [1] (setting [3]) came out at 57%; at human PHD2 [2] (setting [4]) it was 50%.
In the same order, the values of `O=C(O)CNC(=O)C1=C(O)CCN(Cc2ccc(-c3ccc(C(F)(F)F)cc3)cc2)C1=O` [Ex. 2-24] are 93% and 91%.
In the case of `O=C(O)CNC(=O)C1=C(O)CCN(Cc2ccc(C(F)(F)F)cc2C(F)(F)F)C1=O` [Ex. 1-54], the results for the inhibition at 1 µM on human PHD2 [1] (setting [3]) and at human PHD2 [2] (setting [4]) were 71% and 60%, respectively.
With `CC(=O)c1ccc(-c2ccc(CN3CCC(O)=C(C(=O)NCC(=O)O)C3=O)cc2)cc1` [Ex. 2-16], the inhibition at 1 µM worked out at 93% at human PHD2 [1] (setting [3]) and 102% on human PHD2 [2] (setting [4]).
`O=C(O)CNC(=O)C1=C(O)C2(CCOCC2)CN(Cc2ccc(-c3ccc(C(F)(F)F)cc3)cc2)C1=O` [Ex. 1-119]: the inhibition at 1 µM is 84% at human PHD2 [1] (setting [3]) and 85% on human PHD2 [2] (setting [4]).
In the same order, the values of `CC1(C)CC(O)=C(C(=O)NCC(=O)O)C(=O)N1CC1CC(c2ccccc2)C1` (centres unmarked) [Ex. 1-217] are 60% and 52%.
Taken in the same sequence, the figures for `CC1(C)CC(O)=C(C(=O)NCC(=O)O)C(=O)N1Cc1nc(-c2ccccc2)cs1` [Ex. 1-294] were 68% and 51%.
Turning to `Cc1ccc(CN2CCC(O)=C(C(=O)NCC(=O)O)C2=O)cc1C(F)(F)F` [Ex. 1-129], the inhibition at 1 µM at human PHD2 [1] (setting [3]) was determined as 80%; on human PHD2 [2] (setting [4]) it was 71%.
Taken in the same sequence, the figures for `O=C(O)CNC(=O)C1=C(O)CC2(CCC2)N(Cc2ccc(Cl)c(Cl)c2)C1=O` [Ex. 1-167] were 88% and 80%.
In the same order, the values of `O=C(O)CNC(=O)C1=C(O)CC2(CCOCC2)N(Cc2cnc(-c3ccccc3)s2)C1=O` [Ex. 1-98] are 88% and 88%.
In the case of `CC1CN(Cc2ccc(OC(F)(F)F)cc2)C(=O)C(C(=O)NCC(=O)O)=C1O` (centres unmarked) [Ex. 1-3, N-({4-Hydroxy-5-methyl-2-oxo-1-[4-(trifluoromethoxy)benzyl]-1,2,5,6-tetrahydropyridin-3-yl}carbonyl)glycine sodium salt], the inhibition at 1 µM on human PHD2 [1] is 78%; on human PHD2 [2], 74%.
For the compound `CC1(C)CC(O)=C(C(=O)NCC(=O)O)C(=O)N1Cc1ccc(-c2ccc(C(F)(F)F)cc2)cc1` [Ex. 1-118], the inhibition at 1 µM on human PHD2 [1] (setting [3]) was 87%; at human PHD2 [2] (setting [4]), 77%.
Consider `CC1(C)CC(O)=C(C(=O)NCC(=O)O)C(=O)N1Cc1ccc(Cl)cc1` [Ex. 1-157], for which the inhibition at 1 µM on human PHD2 [1] (setting [3]) was determined as 73%; at human PHD2 [2] (setting [4]), 67%.
Taken in the same sequence, the figures for `O=C(O)CNC(=O)C1=C(O)CC2(CCCC2)N(Cc2ccc(C(F)(F)F)cc2)C1=O` [Ex. 1-156] were 80% and 70%.
In the same order, the values of `O=C(O)CNC(=O)C1=C(O)C2(CCC2)CN(Cc2ccc(C3CC3)cc2)C1=O` [Ex. 1-237] are 84% and 74%.
As to `COc1ccc(-c2ccc(CN3CCC(O)=C(C(=O)NCC(=O)O)C3=O)cc2)cn1` [Ex. 2-13], the inhibition at 1 µM on human PHD2 [1] (setting [3]) came to 87%; at human PHD2 [2] (setting [4]), 92%.
By IC50 is commonly meant the concentration that gives 50% inhibition. Consider `Cc1ccccc1Oc1ccc(CN2CCC(O)=C(C(=O)NCC(=O)O)C2=O)cc1` [Ex. 1-283], for which the IC50 on human PHD2 [1] (human PHD2, fluorescence polarization assay, 20-min incubation at 30° C.) is 63 nM. The values for the inhibition at 1 µM on human PHD2 [1] (setting [3]) and at human PHD2 [2] (setting [4]) were 97% and 99%, respectively.
On to `O=C(O)CNC(=O)C1=C(O)C2(CCOCC2)CN(CC2CCC(c3ccccc3)CC2)C1=O` (centres unmarked) [Ex. 1-117], for which the inhibition at 1 µM on human PHD2 [1] (setting [3]) was 92%; at human PHD2 [2] (setting [4]) it was 83%.
For `CC(C)(C)c1ccc(-c2ccc(CN3CCC(O)=C(C(=O)NCC(=O)O)C3=O)cc2)cc1` [Ex. 1-36], the inhibition at 1 µM turned out to be 85% on human PHD2 [1] (setting [3]) and 83% at human PHD2 [2] (setting [4]).
Taken in the same sequence, the figures for `O=C(O)CNC(=O)C1=C(O)CC2(CCCCC2)N(Cc2ccccc2)C1=O` [Ex. 1-253] were 49% and 45%.
